Results reported in US6737383B1, “Herbicidal oxadiazolidines” (priority 1999, dated 2004).

How the values were obtained:
purple nutsedge = assay: Test B pre/postemergence purple nutsedge; assay type: in vivo, Cyperus rotundus
How it was run: (§1)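 Response is a visual 0-to-10 score relative to untreated plants, where 0 means no effect and 10 means complete control, taken twelve to sixteen days after application. Treatments went onto soil at planting and onto foliage of 1- to 4-leaf plants, using a surfactant-containing non-phytotoxic solvent.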

rape = assay: Test B pre/postemergence rape; assay type: in vivo, Brassica napus
How it was run: as §1

smallflower flatsedge = assay: Test B flood test smallflower flatsedge; assay type: in vivo, Cyperus difformis
How it was run: (§2)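 Flood test on plants grown to the 2-leaf stage; treated plants kept in greenhouse twelve to sixteen days, then visually rated against controls on a 0 (no effect) to 10 (complete control) scale.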

soybean = assay: Test B pre/postemergence soybean; assay type: in vivo, Glycine max
How it was run: as §1

wild oat = assay: Test B pre/postemergence wild oat; assay type: in vivo, Avena fatua
How it was run: as §1

wheat = assay: Test B pre/postemergence wheat; assay type: in vivo, Triticum aestivum
How it was run: as §1

bamyardgrass = assay: Test B flood test barnyardgrass; assay type: in vivo, Echinochloa crus-galli
How it was run: as §2

crabgrass = assay: Test B pre/postemergence crabgrass; assay type: in vivo, Digitaria sanguinalis
How it was run: as §1

surinam grass = assay: Test B pre/postemergence surinam grass; assay type: in vivo, Brachiaria decumbens
How it was run: as §1

cocklebur = assay: Test B pre/postemergence cocklebur; assay type: in vivo, Xanthium strumarium
How it was run: as §1

duck salad = assay: Test B flood test duck salad; assay type: in vivo, Heteranthera limosa
How it was run: as §2

blackgrass = assay: Test B pre/postemergence blackgrass; assay type: in vivo, Alopecurus myosuroides
How it was run: as §1

corn = assay: Test B pre/postemergence corn; assay type: in vivo, Zea mays
How it was run: as §1

rice = assay: Test B flood test rice; assay type: in vivo, Oryza sativa
How it was run: as §2

velvetleaf = assay: Test B pre/postemergence velvetleaf; assay type: in vivo, Abutilon theophrasti
How it was run: as §1

sugar beet = assay: Test B pre/postemergence sugar beet; assay type: in vivo, Beta vulgaris
How it was run: as §1

bedstraw = assay: Test B pre/postemergence bedstraw; assay type: in vivo, Galium aparine
How it was run: as §1

[1] = Postemergence, Rate 62 g/ha, scale 0 to 10, 0 is no effect, 10 is complete control
[2] = Postemergence, Rate 250 g/ha, scale 0 to 10, 0 no effect, 10 complete control
[3] = Preemergence, Rate 62 g/ha, scale 0 to 10 (0 no effect, 10 complete control)
[4] = Preemergence, Rate 125 g/ha, scale 0 to 10 (0 no effect, 10 complete control)
[5] = Preemergence, Rate 250 g/ha, scale of 0 to 10 where 0 is no effect and 10 is complete control
[6] = Preemergence, Rate 500 g/ha, scale 0 (no effect) to 10 (complete control)
[7] = Rate 125 g/ha, Postemergence, scale 0 to 10, 0 no effect, 10 complete control
[8] = Rate 500 g/ha, Postemergence, scale 0 to 10, 0 no effect, 10 complete control
[9] = Rate 125 g/ha, Postemergence section (flood test species), scale 0 to 10, 0 no effect, 10 complete control
[10] = Rate 500 g/ha, listed under Postemergence (flood test species), scale 0 to 10, 0 no effect, 10 complete control
[11] = flood test, listed under Postemergence, Rate 250 g/ha, scale 0 to 10, 0 no effect, 10 complete control

CCN(C(=O)n1oc(=O)n(-c2c(C)cc(C)cc2C)c1=O)C1CCCCC1 [Compound 63]
2: Nutsedge plant response rating (purple nutsedge; [2]) | Nutsedge plant response rating (purple nutsedge; [8]) | Soybean plant response rating (soybean; [1]) | Soybean plant response rating (soybean; [2]) | Soybean plant response rating (soybean; [7]) | Wild oats plant response rating (wild oat; [8]) | Wheat plant response rating (wheat; [8]) | Crabgrass plant response rating (crabgrass; [6]) | Crabgrass plant response rating (crabgrass; [8]) | Corn plant response rating (corn; [2]) | Corn plant response rating (corn; [8]) | Plant response rating, Velvetleaf (velvetleaf; [5]) | Sugarbeets plant response rating (sugar beet; [2])
3: Soybean plant response rating (soybean; [8]) | Velvetleaf plant response rating (velvetleaf; [1]) | Velvetleaf plant response rating (velvetleaf; [6]) | Velvetleaf plant response rating (velvetleaf; [7]) | Sugarbeets plant response rating (sugar beet; [8]) | Bedstraw plant response rating (bedstraw; [2]) | Bedstraw plant response rating (bedstraw; [6])
0: Nutsedge plant response rating (purple nutsedge; [1]) | Nutsedge plant response rating (purple nutsedge; [3]) | Plant response rating, Nutsedge (purple nutsedge; [4]) | Plant response rating, Nutsedge (purple nutsedge; [5]) | Nutsedge plant response rating (purple nutsedge; [7]) | Rape plant response rating (rape; [1]) | Rape plant response rating (rape; [2]) | Rape plant response rating (rape; [3]) | Plant response rating, Rape (rape; [4]) | Plant response rating, Rape (rape; [5]) | Rape plant response rating (rape; [7]) | Rape plant response rating (rape; [8]) | S. Flatsedge plant response rating (smallflower flatsedge; [1]) | S. Flatsedge plant response rating (smallflower flatsedge; [9]) | S. Flatsedge plant response rating (smallflower flatsedge; [10]) | S. Flatsedge plant response rating (smallflower flatsedge; [11]) | Soybean plant response rating (soybean; [3]) | Plant response rating, Soybean (soybean; [4]) | Plant response rating, Soybean (soybean; [5]) | Soybean plant response rating (soybean; [6]) | Wild oats plant response rating (wild oat; [1]) | Wild oats plant response rating (wild oat; [2]) | Wild oats plant response rating (wild oat; [3]) | Plant response rating, Wild oats (wild oat; [4]) | Plant response rating, Wild oats (wild oat; [5]) | Wild oats plant response rating (wild oat; [6]) | Wild oats plant response rating (wild oat; [7]) | Wheat plant response rating (wheat; [1]) | Wheat plant response rating (wheat; [2]) | Wheat plant response rating (wheat; [3]) | Plant response rating, Wheat (wheat; [4]) | Plant response rating, Wheat (wheat; [5]) | Wheat plant response rating (wheat; [6]) | Wheat plant response rating (wheat; [7]) | Barnyardgrass plant response rating (bamyardgrass; [1]) | Barnyardgrass plant response rating (bamyardgrass; [9]) | Barnyardgrass plant response rating (bamyardgrass; [10]) | Barnyardgrass plant response rating (bamyardgrass; [11]) | Crabgrass plant response rating (crabgrass; [1]) | Crabgrass plant response rating (crabgrass; [2]) | Crabgrass plant response rating (crabgrass; [3]) | Plant response rating, Crabgrass (crabgrass; [4]) | Crabgrass plant response rating (crabgrass; [7]) | B. signalgrass plant response rating (surinam grass; [1]) | B. signalgrass plant response rating (surinam grass; [2]) | B. signalgrass plant response rating (surinam grass; [3]) | Plant response rating, B. signalgrass (surinam grass; [4]) | Plant response rating, B. signalgrass (surinam grass; [5]) | B. signalgrass plant response rating (surinam grass; [6]) | B. signalgrass plant response rating (surinam grass; [7]) | B. signalgrass plant response rating (surinam grass; Rate 500 g/ha, Postemergence, scale of 0 to 10 where 0 is no effect and 10 is complete control) | Cocklebur plant response rating (cocklebur; [1]) | Cocklebur plant response rating (cocklebur; [2]) | Cocklebur plant response rating (cocklebur; [3]) | Plant response rating, Cocklebur (cocklebur; [4]) | Plant response rating, Cocklebur (cocklebur; [5]) | Cocklebur plant response rating (cocklebur; [6]) | Cocklebur plant response rating (cocklebur; [7]) | Cocklebur plant response rating (cocklebur; [8]) | Ducksalad plant response rating (duck salad; [1]) | Ducksalad plant response rating (duck salad; [9]) | Ducksalad plant response rating (duck salad; [10]) | Ducksalad plant response rating (duck salad; [11]) | Blackgrass plant response rating (blackgrass; [1]) | Blackgrass plant response rating (blackgrass; [2]) | Blackgrass plant response rating (blackgrass; [3]) | Plant response rating, Blackgrass (blackgrass; [4]) | Plant response rating, Blackgrass (blackgrass; [5]) | Blackgrass plant response rating (blackgrass; [6]) | Blackgrass plant response rating (blackgrass; [7]) | Blackgrass plant response rating (blackgrass; [8]) | Corn plant response rating (corn; [1]) | Corn plant response rating (corn; [3]) | Plant response rating, Corn (corn; [4]) | Plant response rating, Corn (corn; [5]) | Corn plant response rating (corn; [6]) | Corn plant response rating (corn; [7]) | Rice plant response rating (rice; [1]) | Rice plant response rating (rice; [9]) | Rice plant response rating (rice; [10]) | Rice plant response rating (rice; [11]) | Velvetleaf plant response rating (velvetleaf; [3]) | Plant response rating, Velvetleaf (velvetleaf; [4]) | Sugarbeets plant response rating (sugar beet; [1]) | Sugarbeets plant response rating (sugar beet; [3]) | Plant response rating, Sugarbeets (sugar beet; [4]) | Plant response rating, Sugarbeets (sugar beet; [5]) | Sugarbeets plant response rating (sugar beet; [6]) | Sugarbeets plant response rating (sugar beet; [7]) | Bedstraw plant response rating (bedstraw; [1]) | Bedstraw plant response rating (bedstraw; [3]) | Plant response rating, Bedstraw (bedstraw; [4]) | Plant response rating, Bedstraw (bedstraw; [5]) | Bedstraw plant response rating (bedstraw; [7])
6: Nutsedge plant response rating (purple nutsedge; [6])
1: Plant response rating, Crabgrass (crabgrass; [5])
5: Velvetleaf plant response rating (velvetleaf; [2]) | Velvetleaf plant response rating (velvetleaf; [8])
